What all share (experiment): SAT activity, acetyl-CoA decrease at […] nm
Assay [1] deals with T1, AtSAT-c (Arabidopsis thaliana, UniProt Q42538, G270A).
T1 sequence (Q42538 1-312 G270A): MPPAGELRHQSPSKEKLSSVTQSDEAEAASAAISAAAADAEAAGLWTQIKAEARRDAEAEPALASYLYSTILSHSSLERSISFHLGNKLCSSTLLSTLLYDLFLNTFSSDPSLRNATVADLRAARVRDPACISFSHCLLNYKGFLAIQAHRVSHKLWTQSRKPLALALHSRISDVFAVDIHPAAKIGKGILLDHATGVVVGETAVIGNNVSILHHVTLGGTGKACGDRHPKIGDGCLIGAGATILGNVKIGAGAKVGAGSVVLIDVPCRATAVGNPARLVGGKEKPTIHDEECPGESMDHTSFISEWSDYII
The class given is biochemical.

Assay [2] deals with T2, AtSAT-c (Arabidopsis thaliana, UniProt Q42538, C268P/G270A).
T2 sequence (Q42538 1-312 C268P/G270A): T1 sequence (Q42538 1-312 G270A) with C268P
The class given is biochemical.

For a further assay, the system named is Tg-N/At-C. Format: biochemical, Noccaea goesingensis; Arabidopsis thaliana. The settings on record: 1 mM L-serine, 0.1 mM acetyl-CoA, 50 mM Tris-HCl pH 8.0, room temperature; feedback inhibition.
In assay [3] the target is T3, AtSAT-c (Arabidopsis thaliana, UniProt Q42538, C268P).
T3 sequence (Q42538 1-312 C268P): T1 sequence (Q42538 1-312 G270A) with C268P, A270G
The class given is biochemical.

A further assay concerns the target T4, TgSAT-c (Noccaea goesingensis, UniProt Q6IWF8).
T4 sequence (Q6IWF8 1-311): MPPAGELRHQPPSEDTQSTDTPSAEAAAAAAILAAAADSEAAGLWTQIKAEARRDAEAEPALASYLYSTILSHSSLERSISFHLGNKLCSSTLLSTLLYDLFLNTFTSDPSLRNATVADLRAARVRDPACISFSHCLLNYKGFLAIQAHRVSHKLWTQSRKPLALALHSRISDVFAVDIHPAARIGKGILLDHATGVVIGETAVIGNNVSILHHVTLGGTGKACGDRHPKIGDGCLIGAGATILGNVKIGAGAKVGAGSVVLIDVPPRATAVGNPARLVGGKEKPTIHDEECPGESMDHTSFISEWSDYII
The class given is biochemical.

The test system of a further assay is At-N/Tg-C. Format: biochemical, Arabidopsis thaliana; Noccaea goesingensis. Conditions: 1 mM L-serine, 0.1 mM acetyl-CoA, 50 mM Tris-HCl pH 8.0, room temperature; feedback inhibition.
In a further assay the target is T5, TgSAT-p (Noccaea goesingensis, UniProt Q6IWF9).
T5 sequence (Q6IWF9 1-319): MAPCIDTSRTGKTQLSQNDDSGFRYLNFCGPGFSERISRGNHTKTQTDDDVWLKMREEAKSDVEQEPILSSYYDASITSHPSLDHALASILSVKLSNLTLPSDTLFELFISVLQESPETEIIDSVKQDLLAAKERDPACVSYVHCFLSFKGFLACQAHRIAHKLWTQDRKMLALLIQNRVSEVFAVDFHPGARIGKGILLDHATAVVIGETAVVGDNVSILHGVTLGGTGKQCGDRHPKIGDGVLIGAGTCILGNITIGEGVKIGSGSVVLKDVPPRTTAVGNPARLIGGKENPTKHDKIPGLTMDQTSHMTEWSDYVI
Format: biochemical.

The target of the next assay is T6, TgSAT-m (Noccaea goesingensis, UniProt Q6IWG0).
T6 sequence (Q6IWG0 1-395): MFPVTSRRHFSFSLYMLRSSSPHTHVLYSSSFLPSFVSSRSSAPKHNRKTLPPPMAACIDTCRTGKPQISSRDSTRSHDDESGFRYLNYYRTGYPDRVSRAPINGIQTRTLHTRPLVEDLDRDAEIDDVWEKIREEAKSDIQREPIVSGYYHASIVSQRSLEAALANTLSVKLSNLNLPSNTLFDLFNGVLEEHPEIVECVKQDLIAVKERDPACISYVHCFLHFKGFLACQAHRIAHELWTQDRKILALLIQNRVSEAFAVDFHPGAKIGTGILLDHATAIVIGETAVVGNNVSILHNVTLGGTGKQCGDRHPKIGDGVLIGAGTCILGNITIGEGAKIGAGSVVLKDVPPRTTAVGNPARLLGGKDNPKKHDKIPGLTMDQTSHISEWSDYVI
Format: biochemical.

For assay [4], the target named is T7, AtSAT-c (Arabidopsis thaliana, UniProt Q42538).
T7 sequence (Q42538 1-312): T1 sequence (Q42538 1-312 G270A) with A270G
Format: biochemical.

Structures are written as SMILES. Residue numbers refer to the chain shown, from its start.

With `N[C@@H](CS)C(=O)O` [L-Cys], the concentration for half-maximal inhibition (IC50) was 17.7 µM against AtSAT-c [1]; over 100 µM on AtSAT-c [2]; 3.4 µM in the assay on Tg-N/At-C; 83.9 µM on AtSAT-c [3]; over 100 µM on TgSAT-c; over 100 µM with At-N/Tg-C. The figures for the 50% inhibitory concentration (IC50) against TgSAT-p, on TgSAT-m and against AtSAT-c [4] were over 100 µM, over 100 µM and 3.3 µM, respectively.

For the origin of these results see PMC3220491 (The Journal of Biological Chemistry, 2011).
